Laboratory results published in ChEMBL document CHEMBL5724914, “Linking interpersonal differences in gut microbiota composition and drug biotransformation activity” (2024).

What was measured:
[1] = (§1) The drug is tested on WLS-006 corresponding to human gut metagenome with ENA study accession number: PRJEB37062 and ENA sample accession number: ERS12561741 for biotransformation under anaerobic condition. The drug concentrations were measured over 9 timepoints collected between 0 and 24 hours of incubation by liquid-chromatography-coupled mass spectrometry (LC–MS); conditions: 2 µM
[2] = as §1, with “WLS-098” for “WLS-006”, “ERS12561754” for “ERS12561741”; conditions: 2 µM
[3] = human gut metagenome, 24 h, 2 µM
[4] = as §1, with “WLS-082” for “WLS-006”, “ERS12561751” for “ERS12561741”; conditions: 2 µM
[5] = as §1, with “Z-012” for “WLS-006”, “to” for “to human gut”, “ERS12561812” for “ERS12561741”; conditions: 2 µM
[6] = human gut metagenome, 24 h, 2 µM; remark: listed apart in the source
[7] = as §1, with “Z-011” for “WLS-006”, “mouse” for “human”, “ERS12561811” for “ERS12561741”; conditions: 2 µM
[8] = as §1, with “WLS-350” for “WLS-006”, “ERS12561789” for “ERS12561741”; conditions: 2 µM
[9] = as §1, with “WLS-027” for “WLS-006”, “ERS12561744” for “ERS12561741”; conditions: 2 µM
Further: call rule not given here.

Compound | Bacterial Biotransformation [1] | Bacterial Biotransformation [2] | Bacterial Biotransformation [3] | Bacterial Biotransformation [4] | Bacterial Biotransformation [5] | Bacterial Biotransformation [6] | Bacterial Biotransformation [7] | Bacterial Biotransformation [8] | Bacterial Biotransformation [9]
C[C@]12CCC(=O)C=C1[C@@H]1C[C@@H]1[C@H]1[C@@H]3[C@@H]4C[C@@H]4[C@@]4(CCC(=O)O4)[C@@]3(C)CC[C@@H]12 [DROSPIRENONE] | Compound metabolized | Compound NOT metabolized | Compound metabolized | Compound metabolized | Compound NOT metabolized | Compound metabolized | Compound NOT metabolized | Compound NOT metabolized | Compound metabolized
CC(C)c1c(CN(C)C(C)Cc2ccccc2)n(C)n(-c2ccccc2)c1=O (stereo not drawn) [FAMPROFAZONE] | Compound metabolized | Compound metabolized | Compound metabolized | Compound metabolized | Compound metabolized | Compound metabolized | Compound metabolized | Compound metabolized | Compound metabolized
N=C(N)NC(=O)Cc1c(Cl)cccc1Cl [GUANFACINE] | Compound NOT metabolized | Compound NOT metabolized | Compound NOT metabolized | Compound NOT metabolized | Compound NOT metabolized | Compound NOT metabolized | Compound NOT metabolized | Compound NOT metabolized | Compound NOT metabolized
Nc1nc(N)nc(-c2cc(Cl)ccc2Cl)n1.O=C(O)/C=C\C(=O)O [IRSOGLADINE MALEATE] | Compound NOT metabolized | Compound metabolized | Compound NOT metabolized | Compound NOT metabolized | Compound NOT metabolized | Compound NOT metabolized | Compound NOT metabolized | Compound NOT metabolized | Compound NOT metabolized
CN1CCC(=C2c3ccccc3CC(=O)c3sccc32)CC1.O=C(O)/C=C/C(=O)O [KETOTIFEN FUMARATE] | Compound metabolized | Compound metabolized | Compound NOT metabolized | Compound NOT metabolized | Compound NOT metabolized | Compound metabolized | Compound NOT metabolized | Compound NOT metabolized | Compound NOT metabolized
CC[C@H](C)C(=O)O[C@H]1CCC=C2C=C[C@H](C)[C@H](CC[C@@H]3C[C@@H](O)CC(=O)O3)[C@H]21 [MEVASTATIN] | Compound metabolized | Compound NOT metabolized | Compound metabolized | Compound metabolized | Compound NOT metabolized | Compound metabolized | Compound NOT metabolized | Compound NOT metabolized | Compound metabolized
COc1ccc2cc([C@H](C)C(=O)O)ccc2c1 [NAPROXEN] | Compound metabolized | Compound metabolized | Compound NOT metabolized | Compound metabolized | Compound NOT metabolized | Compound metabolized | Compound NOT metabolized | Compound metabolized | Compound metabolized
C#C[C@]1(OC(C)=O)CC[C@H]2[C@@H]3CCC4=C/C(=N/O)CC[C@@H]4[C@H]3CC[C@@]21CC [NORGESTIMATE] | Compound metabolized | Compound metabolized | Compound metabolized | Compound metabolized | Compound NOT metabolized | Compound metabolized | Compound NOT metabolized | Compound metabolized | Compound metabolized
COc1ccnc(C[S+]([O-])c2nc3ccc(OC(F)F)cc3[nH]2)c1OC (stereo not drawn) [PANTOPRAZOLE] | Compound metabolized | Compound metabolized | Compound metabolized | Compound metabolized | Compound metabolized | Compound metabolized | Compound metabolized | Compound metabolized | Compound metabolized
O=C1N=C([O-])NC1(c1ccccc1)c1ccccc1.[Na+] [PHENYTOIN SODIUM] | Compound metabolized | Compound metabolized | Compound metabolized | Compound metabolized | Compound NOT metabolized | Compound NOT metabolized | Compound NOT metabolized | Compound metabolized | Compound metabolized
C[C@]12C=CC(=O)C=C1CC[C@@H]1[C@@H]2C(=O)C[C@@]2(C)[C@H]1CC[C@]2(O)C(=O)CO [PREDNISONE] | Compound metabolized | Compound metabolized | Compound metabolized | Compound metabolized | Compound metabolized | Compound metabolized | Compound NOT metabolized | Compound metabolized | Compound metabolized
CN(CCOc1ccc(CC2SC(=O)NC2=O)cc1)c1ccccn1.O=C(O)/C=C\C(=O)O (stereo not drawn) [ROSIGLITAZONE MALEATE] | Compound metabolized | Compound metabolized | Compound NOT metabolized | Compound NOT metabolized | Compound NOT metabolized | Compound metabolized | Compound NOT metabolized | Compound metabolized | Compound metabolized
CC(C)c1nc(N(C)S(C)(=O)=O)nc(-c2ccc(F)cc2)c1/C=C/[C@@H](O)C[C@@H](O)CC(=O)[O-].CC(C)c1nc(N(C)S(C)(=O)=O)nc(-c2ccc(F)cc2)c1/C=C/[C@@H](O)C[C@@H](O)CC(=O)[O-].[Ca+2] [ROSUVASTATIN CALCIUM] | Compound metabolized | Compound metabolized | Compound metabolized | Compound metabolized | Compound NOT metabolized | Compound metabolized | Compound NOT metabolized | Compound metabolized | Compound metabolized
O=C(O)c1cc(/N=N/c2ccc(S(=O)(=O)Nc3ccccn3)cc2)ccc1O [SULFASALAZINE] | Compound metabolized | Compound metabolized | Compound metabolized | Compound metabolized | Compound metabolized | Compound metabolized | Compound metabolized | Compound metabolized | Compound metabolized
C=CC[C@@H]1/C=C(\C)C[C@H](C)C[C@H](OC)[C@H]2O[C@@](O)(C(=O)C(=O)N3CCCC[C@H]3C(=O)O[C@H](/C(C)=C/[C@@H]3CC[C@@H](O)[C@H](OC)C3)[C@H](C)[C@@H](O)CC1=O)[C@H](C)C[C@@H]2OC.O [TACROLIMUS] | Compound metabolized | Compound NOT metabolized | Compound metabolized | Compound metabolized | Compound NOT metabolized | Compound metabolized | Compound NOT metabolized | Compound NOT metabolized | Compound metabolized
CCS(=O)(=O)CCn1c([N+](=O)[O-])cnc1C [TINIDAZOLE] | Compound metabolized | Compound metabolized | Compound metabolized | Compound metabolized | Compound metabolized | Compound metabolized | Compound metabolized | Compound metabolized | Compound metabolized
COc1ccc(CN2CCNCC2)c(OC)c1OC.Cl.Cl [TRIMETAZIDINE DIHYDROCHLORIDE] | Compound NOT metabolized | Compound NOT metabolized | Compound NOT metabolized | Compound NOT metabolized | Compound NOT metabolized | Compound NOT metabolized | Compound NOT metabolized | Compound NOT metabolized | Compound NOT metabolized
